Reference: patent US20260125346A1, “Isoquinolinone Derivatives and 4H-Quinolizinone Derivatives and Pharmaceutical Compositions Thereof for the Treatment of Disease” (BeOne Medicines I GmbH, priority 2023, published 2026)

Tests used:
[1] = tested on: PI3Kα H1047R mutated cell line T-47D cells; assay: Cell Proliferation Assay (CellTiter-Glo), T-47D; assay type: cell-based; conditions: for IC50: Homo sapiens, T47D, 72 h, T-47D, 3 days treatment; for Selectivity: SK-BR-3/T-47D (cell proliferation): cell proliferation IC50 ratio
Method in brief: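 T-47D cells seeded overnight at 3×10^3/well, then exposed 3 days to 9-point 1:3 dilutions, final […] to 1 nM in 0.1% DMSO. CellTiter-Glo luminescence; relative IC50 from percent inhibition versus medium-only and 0.1% DMSO controls, 4-parameter logistic fit.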

WT cell line SK-BR-3 = assay: Cell Proliferation Assay (CellTiter-Glo), SK-BR-3; assay type: cell-based; conditions: Homo sapiens, 72 h; SK-BR-3, 3 days treatment
Method in brief: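 SK-BR-3 cells treated for 3 days with compound in a 9-point series, final concentrations 10 M to 1 nM in 0.1% DMSO. Viability read by CellTiter-Glo luminescence. Relative IC50 from percent inhibition versus medium-only and DMSO controls, four-parameter logistic fit.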

[2] = molecular target: PI3Kα (p110/p85) kinase (wild type, "WT") (Homo sapiens, UniProt P42336); assay: PI3Kα (p110/p85) kinase ADP-Glo Assay; assay type: biochemical; conditions: 25 uM ATP
Method in brief: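 IC50 values come from a four-parameter logistic fit of ADP-Glo chemiluminescence, reflecting ADP formed. Enzyme, lipid substrate and […] compound were preincubated 30 min at room temperature, then 25 µM ATP was added for a 120 min reaction in 50 mM HEPES pH7.5, 3 mM MgCl2.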

[3] = molecular target: PI3Kα (p110[H1047R]/p85) kinase (Homo sapiens, UniProt P42336, H1047R); assay: PI3Kα (p110[H1047R]/p85) kinase ADP-Glo Assay; assay type: biochemical; conditions: 25 uM ATP; for selectivity: WT/H1047R: ADP-Glo Assay IC50 ratio
Method in brief: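 ADP-Glo luminescence tracked ADP formed by the mutant p110α(H1047R)/p85 complex during a 120 min room-temperature reaction with 25 µM ATP and 5.35 µg/ml PI(4,5)P2:PS lipid substrate, started after 30 min enzyme–compound–substrate pre-incubation (compound […], 50 mM HEPES pH 7.5). IC50 via four-parameter logistic equation.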

Chain of PI3Kα (p110/p85) kinase (wild type, "WT") (P42336 whole entry): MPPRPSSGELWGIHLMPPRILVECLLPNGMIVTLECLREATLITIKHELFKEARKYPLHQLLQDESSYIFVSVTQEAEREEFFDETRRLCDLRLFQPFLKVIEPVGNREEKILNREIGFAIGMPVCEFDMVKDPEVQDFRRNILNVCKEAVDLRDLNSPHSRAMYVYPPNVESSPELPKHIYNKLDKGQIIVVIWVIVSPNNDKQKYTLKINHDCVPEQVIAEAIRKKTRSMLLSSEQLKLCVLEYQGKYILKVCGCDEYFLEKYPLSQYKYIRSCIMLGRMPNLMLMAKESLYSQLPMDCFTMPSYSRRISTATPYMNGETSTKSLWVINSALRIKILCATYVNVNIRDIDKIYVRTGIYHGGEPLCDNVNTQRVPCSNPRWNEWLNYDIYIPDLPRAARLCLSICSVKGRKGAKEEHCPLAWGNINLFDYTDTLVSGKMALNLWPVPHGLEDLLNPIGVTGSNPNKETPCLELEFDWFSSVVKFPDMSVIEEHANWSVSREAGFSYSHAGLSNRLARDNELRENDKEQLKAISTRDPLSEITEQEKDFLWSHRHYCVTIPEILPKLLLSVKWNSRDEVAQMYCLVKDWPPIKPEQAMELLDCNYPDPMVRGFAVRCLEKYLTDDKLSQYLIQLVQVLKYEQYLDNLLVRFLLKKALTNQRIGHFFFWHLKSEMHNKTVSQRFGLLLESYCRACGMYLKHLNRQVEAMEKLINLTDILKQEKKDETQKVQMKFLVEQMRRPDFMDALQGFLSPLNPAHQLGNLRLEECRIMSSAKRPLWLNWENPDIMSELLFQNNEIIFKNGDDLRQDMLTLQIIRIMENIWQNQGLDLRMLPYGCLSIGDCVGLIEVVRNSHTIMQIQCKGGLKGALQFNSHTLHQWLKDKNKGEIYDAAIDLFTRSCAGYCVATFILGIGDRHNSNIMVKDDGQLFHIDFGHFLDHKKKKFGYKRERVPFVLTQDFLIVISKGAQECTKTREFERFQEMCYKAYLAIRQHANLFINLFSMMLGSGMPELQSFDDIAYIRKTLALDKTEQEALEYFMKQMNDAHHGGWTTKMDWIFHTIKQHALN
Chain of PI3Kα (p110/p85) kinase (wild type, "WT") (P27986 whole entry partner): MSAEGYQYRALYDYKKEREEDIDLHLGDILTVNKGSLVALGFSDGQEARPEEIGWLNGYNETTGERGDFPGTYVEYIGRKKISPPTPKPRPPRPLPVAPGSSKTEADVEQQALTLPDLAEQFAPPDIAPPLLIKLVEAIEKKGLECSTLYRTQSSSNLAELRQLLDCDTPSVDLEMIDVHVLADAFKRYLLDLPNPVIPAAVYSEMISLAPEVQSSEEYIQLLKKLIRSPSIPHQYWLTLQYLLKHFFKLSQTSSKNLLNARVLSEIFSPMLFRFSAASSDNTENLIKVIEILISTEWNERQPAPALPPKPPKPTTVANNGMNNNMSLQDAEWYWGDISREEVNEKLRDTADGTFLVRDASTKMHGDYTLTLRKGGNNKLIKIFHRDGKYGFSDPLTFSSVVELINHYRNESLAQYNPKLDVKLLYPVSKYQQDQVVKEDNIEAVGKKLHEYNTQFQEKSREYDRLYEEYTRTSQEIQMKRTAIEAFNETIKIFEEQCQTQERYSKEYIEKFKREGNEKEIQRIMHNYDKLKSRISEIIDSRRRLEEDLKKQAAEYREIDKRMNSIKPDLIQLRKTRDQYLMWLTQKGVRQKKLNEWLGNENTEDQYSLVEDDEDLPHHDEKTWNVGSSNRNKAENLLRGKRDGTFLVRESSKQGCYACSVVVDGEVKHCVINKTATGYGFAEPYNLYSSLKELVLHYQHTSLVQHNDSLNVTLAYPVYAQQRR
Chain of PI3Kα (p110[H1047R]/p85) kinase (P42336 whole entry H1047R): as the sequence (P42336 whole entry) above, with H1047R counted along it
Chain of PI3Kα (p110[H1047R]/p85) kinase (P27986 whole entry partner): as the sequence (P27986 whole entry partner) above

Compound	IC50 [1] [nM]	IC50 (WT cell line SK-BR-3) [nM]	IC50 [2] [nM]	IC50 [3] [nM]	selectivity: WT/H1047R [3]	Selectivity: SK-BR-3/T-47D (cell proliferation) [1]
CC(Nc1ccccc1C(=O)O)c1cccc2c(=O)n(C)c(-c3ccccc3)cc12 (stereo not shown) [Example 20, 2-((1-(2-methyl-1-oxo-3-phenyl-1,2-dihydroisoquinolin-5-yl)ethyl)amino)benzoic acid]	934	> 10000	10100	93	108.4	>10.7
Cc1cc(C(C)Nc2ccccc2C(=O)O)c2cc(-c3ccc(F)cc3)n(C3CCOC3)c(=O)c2c1 (stereo not shown) [Example 69, 2-((1-(3-(4-fluorophenyl)-7-methyl-1-oxo-2-(tetrahydrofuran-3-yl)-1,2-dihydroisoquinolin-5-yl)ethyl)amino)benzoic acid]	1690	> 10000	18800	416	45.3	>5.9
Cc1cc(C(C)Nc2ccccc2C(=O)O)c2cc(-c3ccc(F)cc3)n(C3CCOCC3)c(=O)c2c1 (stereo not shown) [Example 96, 2-((1-(3-(4-fluorophenyl)-7-methyl-1-oxo-2-(tetrahydro-2H-pyran-4-yl)-1,2-dihydroisoquinolin-5-yl)ethyl)amino)benzoic acid]	993	> 10000	72000	910	79.1	>10
Cc1cc(C(C)Nc2ccccc2C(=O)O)c2cc(-c3ccc(P(C)(C)=O)cc3)n(C)c(=O)c2c1 (stereo not shown) [Example 79, 2-((1-(3-(4-(dimethylphosphoryl)phenyl)-2,7-dimethyl-1-oxo-1,2-dihydroisoquinolin-5-yl)ethyl)amino)benzoic acid]	> 10000	> 10000	59200	2420	24.4	
Cc1cc([C@H](C)Nc2ccccc2C(=O)O)c2cc(-c3ccc(F)cc3)n(C)c(=O)c2c1 [Example 35, (S)-2-((1-(3-(4-fluorophenyl)-2,7-dimethyl-1-oxo-1,2-dihydroisoquinolin-5-yl)ethyl)amino)benzoic acid]	> 10000	> 10000	> 100000	> 100000		
Cc1cc(C(C)Nc2ccccc2C(=O)O)c2cc(C#CC3(O)CCCC3)n(C)c(=O)c2c1 (stereo not shown) [Example 89, 2-((1-(3-((1-hydroxycyclopentyl)ethynyl)-2,7-dimethyl-1-oxo-1,2-dihydroisoquinolin-5-yl)ethyl)amino)benzoic acid]	938	> 10000	6840	158	43.3	>11
CCn1c(-c2ccc(F)cc2)cc2c(C(C)Nc3ccc(Cl)nc3C(=O)O)cc(C)cc2c1=O (stereo not shown) [Example 81, 6-chloro-3-((1-(2-ethyl-3-(4-fluorophenyl)-7-methyl-1-oxo-1,2-dihydroisoquinolin-5-yl)ethyl)amino)picolinic acid]	770	> 10000	3780	215	17.6	>13
Cc1cc(C(C)Nc2ccccc2C(=O)O)c2cc(/C=C/c3ccccc3)n(C)c(=O)c2c1 (stereo not shown) [Example 44, (E)-2-((1-(2,7-dimethyl-1-oxo-3-styryl-1,2-dihydroisoquinolin-5-yl)ethyl)amino)benzoic acid]	4770	> 10000	1840	795	2.3	>2.1
Cc1cc(C(C)Nc2ccncc2C(=O)O)c2cc(-c3ccc(F)cc3)n(C)c(=O)c2c1 (stereo not shown) [Example 97, 4-((1-(3-(4-fluorophenyl)-2,7-dimethyl-1-oxo-1,2-dihydroisoquinolin-5-yl)ethyl)amino)nicotinic acid]	> 10000	> 10000	> 100000	> 100000		
Cc1cc(C(C)Nc2ccccc2C(=O)O)c2cc(C3=Cc4ccccc4CC3)n(C)c(=O)c2c1 (stereo not shown) [Example 45, 2-((1-(3-(3,4-dihydronaphthalen-2-yl)-2,7-dimethyl-1-oxo-1,2-dihydroisoquinolin-5-yl)ethyl)amino)benzoic acid]	841	> 10000	7210	273	26.4	>12

Stronger by IC50 [1], values ahead:

IC50 [1] [nM]	IC50 (WT cell line SK-BR-3) [nM]	IC50 [2] [nM]	IC50 [3] [nM]	selectivity: WT/H1047R [3]	Compound	Selectivity: SK-BR-3/T-47D (cell proliferation) [1]
746	> 10000	7780	255	30.5	Cc1cc(C(C)Nc2ccccc2C(=O)O)c2cc(-c3nc4ccccc4s3)n(C)c(=O)c2c1 (stereo not shown) [Example 17, 2-((1-(3-(benzo[d]thiazol-2-yl)-2,7-dimethyl-1-oxo-1,2-dihydroisoquinolin-5-yl)ethyl)amino)benzoic acid]	>13
296	> 10000	26000	725	35.9	Cc1cc(C(C)Nc2ccccc2C(=O)O)c2cc(-c3ccc(C(C)(C)O)nc3)n(C)c(=O)c2c1 (stereo not shown) [Example 55, 2-((1-(3-(6-(2-hydroxypropan-2-yl)pyridin-3-yl)-2,7-dimethyl-1-oxo-1,2-dihydroisoquinolin-5-yl)ethyl)amino)benzoic acid]	>34
267	> 10000	14200	312	45.7	Cc1cc(C(C)Nc2ccccc2C(=O)O)c2cc(-c3ccc(F)cc3)n(-c3nccs3)c(=O)c2c1 (stereo not shown) [Example 71, 2-((1-(3-(4-fluorophenyl)-7-methyl-1-oxo-2-(thiazol-2-yl)-1,2-dihydroisoquinolin-5-yl)ethyl)amino)benzoic acid]	>34
175	> 10000	20500	1070	19.2	Cc1cc(C(C)Nc2ccccc2C(=O)O)c2cc(-c3ccc(N4CCC(C)(O)CC4)nc3)n(C)c(=O)c2c1 (stereo not shown) [Example 72, 2-((1-(3-(6-(4-hydroxy-4-methylpiperidin-1-yl)pyridin-3-yl)-2,7-dimethyl-1-oxo-1,2-dihydroisoquinolin-5-yl)ethyl)amino)benzoic acid]	>57
143	> 10000	2710	187	14.5	Cc1cc(C(C)Nc2ccccc2C(=O)O)c2cc(-c3ccc(F)c(F)c3)n(C)c(=O)c2c1 (stereo not shown) [Example 9, 2-((1-(3-(3,4-difluorophenyl)-2,7-dimethyl-1-oxo-1,2-dihydroisoquinolin-5-yl)ethyl)amino)benzoic acid]	>70
112	> 10000	6860	858	8.0	COc1ccc(-c2cc3c(C(C)Nc4ccccc4C(=O)O)cc(C)cc3c(=O)n2C)cn1 (stereo not shown) [Example 15, 2-((1-(3-(6-methoxypyridin-3-yl)-2,7-dimethyl-1-oxo-1,2-dihydroisoquinolin-5-yl)ethyl)amino)benzoic acid]	>89
93.1	> 10000	4310	281	15.3	COc1ncc(-c2cc3c([C@@H](C)Nc4ccccc4C(=O)O)cc(C)cc3c(=O)n2C)cc1F [Example 59, (R)-2-((1-(3-(5-fluoro-6-methoxypyridin-3-yl)-2,7-dimethyl-1-oxo-1,2-dihydroisoquinolin-5-yl)ethyl)amino)benzoic acid]	>107
70	> 10000	2480	113	21.9	Cc1cc([C@@H](C)Nc2ccccc2C(=O)O)c2cc(-c3ccc(F)cc3)n(CC#N)c(=O)c2c1 [Example 64, (R)-2-((1-(2-(cyanomethyl)-3-(4-fluorophenyl)-7-methyl-1-oxo-1,2-dihydroisoquinolin-5-yl)ethyl)amino)benzoic acid]	>143
52.7	> 10000	5120	55	93.1	Cc1cc([C@@H](C)Nc2ccccc2C(=O)O)c2cc(-c3ccc(-c4cnn(C)c4)cc3)n(C)c(=O)c2c1 [Example 40, (R)-2-((1-(2,7-dimethyl-3-(4-(1-methyl-1H-pyrazol-4-yl)phenyl)-1-oxo-1,2-dihydroisoquinolin-5-yl)ethyl)amino)benzoic acid]	>190
